Data from PubChem BioAssay AID330 (DTP/NCI, 2004).
“And” between values parts separate entries of the source, which are not always exact repeats. Equal values may be shown once. Inconclusive results and toxic doses are left out. How the source made its calls: active means survival T/C of 150% or more; inactive means T/C below 125% in these data.

Tested on: P388 leukemia ip, CD2F1 mice, survival T/C
Test: NCI In Vivo Anticancer Drug Screen. Data for tumor model P388 Leukemia (intraperitoneal) in CD2F1 (CDF1) mice
Conditions: endpoint: median survival time, higher = longer survival
How it was run: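 Mice carrying the transplanted tumor received test compound or vehicle. Survival was recorded in each group, and the value is the treated-group measurement divided by that of the vehicle-treated control group.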

[1] = dose: 50.0 mg/kg/injection, schedule: Q01DX001 (ip), vehicle: Klucel (hydroxypropylcellulose) (HPC)
[2] = dose: 100.0 mg/kg/injection, schedule: Q01DX001 (ip), vehicle: Klucel (hydroxypropylcellulose) (HPC)
[3] = dose: 200.0 mg/kg/injection, schedule: Q01DX001 (ip), vehicle: Klucel (hydroxypropylcellulose) (HPC)
[4] = dose: 60.0 mg/kg/injection, schedule: Q01DX005 (ip), vehicle: saline with Tween-80
[5] = dose: 120.0 mg/kg/injection, schedule: Q01DX005 (ip), vehicle: saline with Tween-80
[6] = dose: 240.0 mg/kg/injection, schedule: Q01DX005 (ip), vehicle: saline with Tween-80
[7] = dose: 50.0 mg/kg/injection, schedule: Q01DX005 (ip), vehicle: Klucel (hydroxypropylcellulose) (HPC)
[8] = dose: 100.0 mg/kg/injection, schedule: Q01DX005 (ip), vehicle: Klucel (hydroxypropylcellulose) (HPC)
[9] = dose: 200.0 mg/kg/injection, schedule: Q01DX005 (ip), vehicle: Klucel (hydroxypropylcellulose) (HPC)
[10] = dose: 50.0 mg/kg/injection, schedule: Q01DX009 (ip), vehicle: saline
[11] = dose: 100.0 mg/kg/injection, schedule: Q01DX009 (ip), vehicle: saline

Measured: T/C

Cc1ccc2nc(N(C)C)[nH]c2c1
inactive: dose: 50.0 mg/kg/injection, schedule: Q01DX005 (ip), vehicle: other 105 % of control | dose: 100.0 mg/kg/injection, schedule: Q01DX005 (ip), vehicle: other 109 % of control

Cc1nc(C)c2c(C)[nH]c(-c3ccccc3)c2n1
inactive: dose: 25.0 mg/kg/injection, schedule: Q04DX002 (ip), vehicle: Klucel (hydroxypropylcellulose) (HPC) 102 % of control | dose: 50.0 mg/kg/injection, schedule: Q04DX002 (ip), vehicle: Klucel (hydroxypropylcellulose) (HPC) 101 % of control | dose: 100.0 mg/kg/injection, schedule: Q04DX002 (ip), vehicle: Klucel (hydroxypropylcellulose) (HPC) 108 % of control | dose: 200.0 mg/kg/injection, schedule: Q04DX002 (ip), vehicle: Klucel (hydroxypropylcellulose) (HPC) 104 % of control

NC(=S)c1ccc(C=Nc2ccccc2)cc1
inactive: [1] 101 % of control | [2] 99 % of control | [3] 100 % of control

CC(C)COC(=O)N1c2ccccc2C=CC1OCC(C)C (stereo unspecified)
inactive: dose: 1.56 mg/kg/injection, schedule: Q01DX005 (ip), vehicle: Klucel (hydroxypropylcellulose) (HPC) 104 % of control | dose: 3.12 mg/kg/injection, schedule: Q01DX005 (ip), vehicle: Klucel (hydroxypropylcellulose) (HPC) 100 % of control | dose: 6.25 mg/kg/injection, schedule: Q01DX005 (ip), vehicle: Klucel (hydroxypropylcellulose) (HPC) 104 % of control | dose: 6.25 mg/kg/injection, schedule: Q01DX005 (ip), vehicle: saline with Tween-80 109 % of control | dose: 12.5 mg/kg/injection, schedule: Q01DX005 (ip), vehicle: saline with Tween-80 112 % of control

COc1ccc(S(=O)(=O)NN)cc1
inactive: dose: 25.0 mg/kg/injection, schedule: Q01DX009 (ip), vehicle: other 106 % of control | dose: 50.0 mg/kg/injection, schedule: Q01DX009 (ip), vehicle: other 103 % of control | dose: 100.0 mg/kg/injection, schedule: Q01DX009 (ip), vehicle: other 104 % of control | dose: 200.0 mg/kg/injection, schedule: Q01DX009 (ip), vehicle: other 106 % of control

O=C(O)c1cc(NCCO)c(C(=O)O)cc1NCCO
inactive: dose: 50.0 mg/kg/injection, schedule: Q01DX005 (ip), vehicle: saline 97 % of control | dose: 100.0 mg/kg/injection, schedule: Q01DX005 (ip), vehicle: saline 100 % of control | dose: 200.0 mg/kg/injection, schedule: Q01DX005 (ip), vehicle: saline 91 % of control

CNc1nc(N)nc(N)c1N1CCN(c2ccc(C(=O)NC(CCCC(=O)O)C(=O)O)cc2)CC1 (stereo unspecified)
inactive: [4] 99 % of control | [5] 100 % of control | [6] 95 % of control

COc1cc2c(cc1C(C)c1ccc(C)cc1)OCO2 (stereo unspecified)
inactive: [7] 103 % of control | [8] 110 % of control | [9] 114 % of control

COc1ccc(Nc2cc[nH]c(=O)c2NC(C)=O)cc1
inactive: [4] 100 % of control | [5] 96 % of control | [6] 94 % of control

CCOC(=O)Cc1csc2nc(-c3ccccc3)cn12
inactive: [4] 115 % of control | [5] 104 % of control | [6] 106 % of control

C(/Oc1ccc(-c2ccccc2)cc1)=C(/c1ccccc1)c1ccccc1-c1ccccc1
inactive: [7] 101 % of control | [8] 99 % of control | [9] 92 % of control

Clc1ccc(NCNC2Nc3ccccc3N2)cc1Cl
inactive: [4] 94 % of control | [5] 93 % of control

OC(c1ccncc1)c1cc(Cl)ccc1Cl (stereo unspecified)
inactive: dose: 50.0 mg/kg/injection, schedule: Q01DX009 (ip), vehicle: saline with Tween-80 94 % of control | dose: 100.0 mg/kg/injection, schedule: Q01DX009 (ip), vehicle: saline with Tween-80 100 % of control | dose: 200.0 mg/kg/injection, schedule: Q01DX009 (ip), vehicle: saline with Tween-80 108 % of control

COc1cc2nn(-c3ccccc3N)nc2cc1OC
inactive: [4] 106 % of control | [5] 100 % of control | [6] 102 % of control

CC(=O)c1c(O)c2ccccc2c2nc3ccccc3nc12
inactive: [10] 96 % of control | [11] 91 % of control | dose: 200.0 mg/kg/injection, schedule: Q01DX009 (ip), vehicle: saline 91 % of control

NC(=S)c1ccccc1N=Cc1ccccn1
inactive: dose: 100.0 mg/kg/injection, schedule: Q04DX003 (ip), vehicle: Klucel (hydroxypropylcellulose) (HPC) 100 % of control | dose: 200.0 mg/kg/injection, schedule: Q04DX003 (ip), vehicle: Klucel (hydroxypropylcellulose) (HPC) 107 % of control

CSc1nc(-c2cccs2)cc(C(F)(F)F)n1
inactive: dose: 50.0 mg/kg/injection, schedule: Q04DX003 (ip), vehicle: gum acacia 105 % of control | dose: 100.0 mg/kg/injection, schedule: Q04DX003 (ip), vehicle: gum acacia 104 % of control | dose: 200.0 mg/kg/injection, schedule: Q04DX003 (ip), vehicle: gum acacia 109 % of control | dose: 400.0 mg/kg/injection, schedule: Q04DX003 (ip), vehicle: gum acacia 96 % of control

O=C1C(c2ccccc2)=C(c2ccccc2)/C1=C/c1ccc(F)cc1
inactive: [1] 112 % of control | [2] 106 % of control | [3] 118 % of control

CC1(C)SC(=O)C(=O)S1
inactive: dose: 100.0 mg/kg/injection, schedule: Q04DX003 (ip), vehicle: saline 103 % of control | dose: 200.0 mg/kg/injection, schedule: Q04DX003 (ip), vehicle: saline 93 % of control

O=C(O)CCN1C(=S)CSC1=S
inactive: dose: 50.0 mg/kg/injection, schedule: Q01DX009 (ip), vehicle: Klucel (hydroxypropylcellulose) (HPC) 107 % of control | dose: 100.0 mg/kg/injection, schedule: Q01DX009 (ip), vehicle: Klucel (hydroxypropylcellulose) (HPC) 103 % of control | dose: 200.0 mg/kg/injection, schedule: Q01DX009 (ip), vehicle: Klucel (hydroxypropylcellulose) (HPC) 100 % of control

CCN(CC)C(=O)C1CCN(Cc2c[nH]c3ccccc23)CC1
inactive: dose: 25.0 mg/kg/injection, schedule: Q01DX009 (ip), vehicle: saline 99 % of control | [10] 104 % of control | [11] 107 % of control

Cc1cccc2c(=O)n(C(=O)c3ccccc3)c(N)nc12
inactive: dose: 25.0 mg/kg/injection, schedule: Q01DX001 (ip), vehicle: saline with Tween-80 88 % of control | dose: 50.0 mg/kg/injection, schedule: Q01DX001 (ip), vehicle: saline with Tween-80 90 % of control | dose: 100.0 mg/kg/injection, schedule: Q01DX001 (ip), vehicle: saline with Tween-80 89 % of control | dose: 200.0 mg/kg/injection, schedule: Q01DX001 (ip), vehicle: saline with Tween-80 93 % of control

CCOc1c(N=Nc2ccc(Cl)cc2Cl)c(C)nn1C(=S)SC
inactive: dose: 60.0 mg/kg/injection, schedule: Q01DX005 (ip), vehicle: Klucel + Tween-80 103 % of control | dose: 120.0 mg/kg/injection, schedule: Q01DX005 (ip), vehicle: Klucel + Tween-80 107 % of control

O=C(NCCCl)Oc1ccc(Cl)cc1Cl
inactive: dose: 12.5 mg/kg/injection, schedule: Q01DX005 (ip), vehicle: Klucel (hydroxypropylcellulose) (HPC) 100 % of control | dose: 25.0 mg/kg/injection, schedule: Q01DX005 (ip), vehicle: Klucel (hydroxypropylcellulose) (HPC) 106 % of control | [7] 108 % of control and 113 % of control

C1=C(OC(=Nc2ccccc2)N2CCOCC2)N=C(OC(=Nc2ccccc2)N2CCOCC2)/C1=C1\C=C(OC(=Nc2ccccc2)N2CCOCC2)N=C1OC(=Nc1ccccc1)N1CCOCC1
inactive: [2] 104 % of control | [3] 107 % of control | dose: 400.0 mg/kg/injection, schedule: Q01DX001 (ip), vehicle: Klucel (hydroxypropylcellulose) (HPC) 106 % of control
